Data taken from ChEMBL document CHEMBL5113460, “Discovery of dual inhibitors of topoisomerase I and Cyclooxygenase-2 for colon cancer therapy” (Eur J Med Chem, 2022).
Values after ≈ are worked out from the molar mass of the structure shown. Active and inactive are the calls of the source. No cut-off for these calls is given here.

Experiments:
[1] = tested on: SW480; assay: Antitumor activity against human SW480 cells assessed as inhibition of cell proliferation incubated for 72 hrs by MTT assay; assay type: functional, cell-based; conditions: SW480, 72 h
[2] = tested on: HT-29; assay: Antitumor activity against human HT-29 cells xenografted in BALB/c mouse assessed as inhibition of tumor cell proliferation at 15 mg/kg, ip bid for 14 days by Ki67 staining based immunohistochemical analysis (Rvb= 16.61+/-1.05%); assay type: functional; parameters: scale not given: the % may be the effect or the level left; conditions: time 14 day
[3] = Cmax in Sprague-Dawley rat at 100 mg/kg, po and measured upto 24 hrs by LC-MS analysis; assay type: ADME, organism-based; parameters: time < 24 hrs, dose 100 mg/kg, route po; conditions: in vivo
[4] = tested on: HT-29; assay: Antitumor activity against human HT-29 cells xenografted in BALB/c mouse assessed as inhibition of tumor growth at 30 mg/kg, ip bid and measured after 14 days by vernier caliper method; assay type: functional; conditions: HT-29, 336 h, time 14 day, read-out: TGI
[5] = tested on: RKO; assay: Induction of apoptosis in human RKO cells assessed as increase in Bax protein level at 3 to 9 uM incubated for 24 hrs by western blot analysis; assay type: functional, cell-based; conditions: dose 3-9 µM
[6] = tested on: HT-29; assay: Antitumor activity against human HT-29 cells assessed as inhibition of cell proliferation incubated for 72 hrs by MTT assay; assay type: functional, cell-based; conditions: HT-29, 72 h
[7] = tested on: HT-29; assay: Induction of apoptosis in human HT-29 cells assessed as increase in intracellular ROS level at 2 to 8 uM for 24 hrs by DCFH-DA staining-based flow cytometric analysis; assay type: functional, cell-based; conditions: dose 2-8 µM
[8] = tested on: HT-29; assay: Antitumor activity against human HT-29 cells xenografted in BALB/c mouse assessed as reduction of tumor weight at 30 mg/kg, ip bid and measured after 14 days; assay type: functional, organism-based; conditions: time 14.0 day
[9] = tested on: RKO; assay: Induction of apoptosis in human RKO cells assessed as viable cells at 3 uM incubated for 24 hr by Annexin-V-FITC/PI staining based flow cytometry (Rvb= 87.9%); assay type: functional; conditions: read-out: Activity
[10] = tested on: RKO; assay: Induction of apoptosis in human RKO cells assessed as necrotic cells at 6 uM incubated for 24 hr by Annexin-V-FITC/PI staining based flow cytometry (Rvb= 0.30%); assay type: functional
[11] = molecular target: T1, DNA topoisomerase 1 (Homo sapiens) (UniProt P11387); assay: Inhibition of topoisomerase 1 (unknown origin) assessed as relaxation of supercoiled plasmid pBR322 DNA at 1 uM incubated for 45 mins by ethidium bromide staining based agarose gel electrophoresis
T1 sequence (whole entry): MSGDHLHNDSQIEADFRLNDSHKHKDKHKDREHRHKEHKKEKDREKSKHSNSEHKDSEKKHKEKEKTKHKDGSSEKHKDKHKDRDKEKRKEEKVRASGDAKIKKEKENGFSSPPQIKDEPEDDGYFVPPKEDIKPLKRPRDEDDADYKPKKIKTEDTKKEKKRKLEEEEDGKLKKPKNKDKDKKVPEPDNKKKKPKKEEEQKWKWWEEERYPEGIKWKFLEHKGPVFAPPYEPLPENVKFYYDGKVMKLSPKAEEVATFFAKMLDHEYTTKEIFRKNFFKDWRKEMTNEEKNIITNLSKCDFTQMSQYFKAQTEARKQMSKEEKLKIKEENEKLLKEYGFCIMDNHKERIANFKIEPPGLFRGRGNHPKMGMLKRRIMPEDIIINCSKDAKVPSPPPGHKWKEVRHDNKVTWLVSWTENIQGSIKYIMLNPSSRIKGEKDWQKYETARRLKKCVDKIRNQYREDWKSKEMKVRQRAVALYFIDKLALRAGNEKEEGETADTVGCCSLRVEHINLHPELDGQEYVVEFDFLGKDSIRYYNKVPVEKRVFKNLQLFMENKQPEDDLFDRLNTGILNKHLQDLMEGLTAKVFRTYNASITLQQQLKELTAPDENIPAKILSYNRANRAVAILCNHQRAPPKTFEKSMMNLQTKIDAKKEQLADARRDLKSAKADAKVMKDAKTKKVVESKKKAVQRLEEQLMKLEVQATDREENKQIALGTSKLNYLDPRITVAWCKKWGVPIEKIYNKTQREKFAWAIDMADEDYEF

[12] = tested on: HT-29; assay: Induction of apoptosis in human HT-29 cells assessed as necrotic cells at 4 uM incubated for 24 hr by Annexin-V-FITC/PI staining based flow cytometry (Rvb=1.67%); assay type: functional
[13] = tested on: HT-29; assay: Induction of apoptosis in human HT-29 cells assessed as late apoptotic cells at 8 uM incubated for 24 hr by Annexin-V-FITC/PI staining based flow cytometry (Rvb=8.60%); assay type: functional
[14] = tested on: RKO; assay: Induction of apoptosis in human RKO cells assessed as reduction in mitochondrial membrane potential at 3 to 9 uM by TMRE staining based flow cytometry; assay type: functional, cell-based; conditions: dose 3-9 µM
[15] = tested on: RKO; assay: Induction of apoptosis in human RKO cells assessed as early apoptotic cells at 3 uM incubated for 24 hr by Annexin-V-FITC/PI staining based flow cytometry (Rvb= 7.27%); assay type: functional
[16] = Half life in Sprague-Dawley rat at 100 mg/kg, po and measured upto 24 hrs by LC-MS analysis; assay type: ADME, organism-based; conditions: in vivo
[17] = Half life in Sprague-Dawley rat at 30 mg/kg, po and measured upto 12 hrs by LC-MS analysis; assay type: ADME, organism-based; conditions: in vivo
[18] = tested on: RKO; assay: Induction of apoptosis in human RKO cells assessed as early apoptotic cells at 9 uM incubated for 24 hr by Annexin-V-FITC/PI staining based flow cytometry (Rvb= 7.27%); assay type: functional
[19] = tested on: RKO; assay: Induction of cell cycle arrest in human RKO cells assessed as ratio of G1/G0 phase at 2 to 8 uM incubated for 24 hrs by flow cytometry (Rvb= 37.57%); assay type: functional; conditions: dose 2-8 µM
[20] = tested on: RKO; assay: Antiproliferative activity against human RKO cells assessed as inhibition of cell proliferation incubated for 24 to 72 hrs by MTT assay; assay type: functional, cell-based; conditions: time 24-72 hrs, DDE = dose-dependent effect
[21] = tested on: HT-29; assay: Antitumor activity against human HT-29 cells xenografted in BALB/c mouse assessed as inhibition of tumor cell proliferation at 30 mg/kg, ip bid for 14 days by Ki67 staining based immunohistochemical analysis (Rvb= 16.61+/-1.05%); assay type: functional; parameters: scale not given: the % may be the effect or the level left; conditions: time 14 day
[22] = tested on: HT-29; assay: Induction of apoptosis in human HT-29 cells assessed as early apoptotic cells at 2 uM incubated for 24 hr by Annexin-V-FITC/PI staining based flow cytometry (Rvb=6.25%); assay type: functional
[23] = Water solubility of compound by HPLC analysis; assay type: physicochemical
[24] = tested on: RKO; assay: Induction of apoptosis in human RKO cells assessed as increase in intracellular ROS level at 3 to 9 uM for 24 hrs by DCFH-DA staining-based flow cytometric analysis; assay type: functional, cell-based; conditions: dose 3-9 µM
[25] = tested on: RKO; assay: Induction of apoptosis in human RKO cells assessed as increase in cleaved caspase-9 protein level at 3 to 9 uM incubated for 24 hrs by western blot analysis; assay type: functional, cell-based; conditions: dose 3-9 µM
[26] = tested on: HT-29; assay: Induction of apoptosis in human HT-29 cells assessed as increase in cleaved caspase-9 protein level at 2 to 8 uM incubated for 24 hrs by western blot analysis; assay type: functional, cell-based; conditions: dose 2-8 µM
[27] = tested on: HT-29; assay: Induction of apoptosis in human HT-29 cells assessed as reduction in mitochondrial membrane potential at 2 to 8 uM by TMRE staining based flow cytometry; assay type: functional, cell-based; conditions: dose 2-8 µM

IC50 [1]: 7.36 µM
Cmax [3]: 2000 ng/mL
IC50 [6]: 1.48 µM
inhibition [11]: 53.2%
half-life [16]: 8.87 h
half-life [17]: 4.27 h
solubility [23]: 32.3 µg/mL (≈ 76.8 µM)
SMILES: Cc1c(Cl)cccc1Nc1ccccc1C(=O)Nc1ccc(N2CCNCC2)cc1
Activity [2]: 3.74%
inhibition in vivo at 30 mg/kg [4]: 57.9%
Activity [5]: Active
Activity [7]: Active
Activity [8]: Active
viability at 3 µM [9]: 88%
Activity [10]: 0.73%
Activity [12]: 1.06%
Activity [13]: 26.1%
Activity [14]: Active
Activity [15]: 6.88%
Activity [18]: 22.7%
Activity [19]: 76.99%
Activity [20]: Dde
Activity [21]: 3.27%
Activity [22]: 4.85%
Activity [24]: Active
Activity [25]: Active
Activity [26]: Active
Activity [27]: Active
